The series is described as follows: Human HepG2 cell viability assay in 384 well format. The note with it: HepG2 cells, read-out: Inhibition. Format: toxicity, cell-based. Also noted: dose 125 nL, time 70.5 hour; cytotoxicity at 70.5 h: concentration not given beside the values.

Consider `CCc1nnc2n1CCN(Cc1nc(-c3ccoc3)no1)C2`, for which the cytotoxicity at 70.5 h was -7.66%.
In the case of `CN(C)c1cc(C(=O)N2CCCC(n3cccn3)C2)ccn1` (stereo not given), the cytotoxicity at 70.5 h is -11.4%.
Regarding `O=C(NCCOc1ccc(Cl)cc1)N1CCS(=O)(=O)CC1`, the cytotoxicity at 70.5 h turned out to be 9.92%.
As for `Cc1ccc2oc(C(=O)N3CCC(C(=O)N4CCCC4)CC3)cc2n1`, the cytotoxicity at 70.5 h was -14.6%.
As for `Cc1c(F)cc(C(=O)O)cc1S(=O)(=O)Nc1cccc(C(F)F)c1`, the cytotoxicity at 70.5 h was -10.3%.
For the compound `Cc1cc(C)c(OCC(=O)NS(=O)(=O)c2c(C)noc2C)c(C)c1`, the cytotoxicity at 70.5 h came to 12.1%.
Turning to `COCc1nc(C(=O)NS(=O)(=O)c2cc(F)ccc2F)cs1`, the cytotoxicity at 70.5 h stood at 20.7%.
Take `O=C(CN1CCCS1(=O)=O)NCCOc1ccc2c(c1)CCC2`: the cytotoxicity at 70.5 h was 5.58%.
As for `Cc1cc(CNc2cc(Cl)ccc2OCCS(C)(=O)=O)no1`, the cytotoxicity at 70.5 h was 13.3%.
Take `Cc1n[nH]c(C)c1C1COCCN1C(=O)c1cc(Cl)c[nH]1` (stereo not given): the cytotoxicity at 70.5 h is -5.39%.
`CN(Cc1ccccc1)CC(O)Cn1cnc2ccccc2c1=O` (stereo not given): the cytotoxicity at 70.5 h amounted to 6.62%.
Regarding `Clc1ccccc1-c1nc(CNC2CCc3ncnn3C2)cs1` (stereo not given), the cytotoxicity at 70.5 h was -1.51%.
As for `CCc1ncc(C(=O)N2CCOCC2c2c(C)n[nH]c2C)s1` (stereo not given), the cytotoxicity at 70.5 h is -2.25%.
Turning to `Cc1ccc(Cl)cc1N1CCC(CNC(=O)CCn2ccnn2)C1` (stereo not given), the cytotoxicity at 70.5 h is -6.67%.
Consider `Cc1cccn2cc(CC(=O)N3CCCC(n4cncn4)C3)nc12` (stereo not given), for which the cytotoxicity at 70.5 h was -3.85%.
Then `c1ccc(OC2CCCC2)c(CNC2CCc3ncnn3C2)c1` (stereo not given), with 1.21%; and `O=C(c1ccc(OCC2CC2)nc1)N1CCCC(n2cncn2)C1` (stereo not given), with -12.6%; and `Cc1ccc(Cl)cc1N1CCC(CNC(=O)CCn2ccnc2)C1` (stereo not given), with -10.1%.
For the compound `NC(=O)C1CCN(C(=O)c2cccc(OCc3cscn3)c2)CC1`, the cytotoxicity at 70.5 h is -12.5%.
The result for `O=C(c1ccc2c(c1)OCO2)N1CCN(c2cnccn2)CC1` reads -3.98%; that for `COc1cccc(-n2nnc(C(=O)N3CCCC3)c2C)c1`, -13.2%; that for `O=C(NCCCn1ccnc1)N1CCCC1c1cccs1` (stereo not given), -2.86%.
For `O=C(NCCc1cccnc1)N1CCCC1c1ccsc1` (stereo not given), the cytotoxicity at 70.5 h is -0.435%.
As to `Cc1noc(C)c1CN(C)C(=O)NC1CCN(c2ncccn2)CC1`, the cytotoxicity at 70.5 h was found to be 35.3%.
Consider `CN(C)c1cc(C(=O)N2CCN(c3cnccn3)CC2)ccn1`, for which the cytotoxicity at 70.5 h is -13.9%.
`CCN(CC1CCOC1)C(=O)Nc1ccc(-n2cncn2)nc1` (stereo not given): the cytotoxicity at 70.5 h was -9.69%.
The result for `CC(Nc1cccc(CN2CCOC2=O)c1)C(=O)NC(N)=O` (stereo not given) reads 32%; that for `CC(Nc1cccc(CN2CCOC2=O)c1)C(=O)N1CCNC1=O` (stereo not given), -6.02%; that for `Cn1ccc(CN2CCC(NC(=O)NC3CCCCC3)CC2)cc1=O`, -5.64%.
Turning to `CC(C)N(Cc1nc2c(cnn2C)c(=O)[nH]1)c1ccccc1`, the cytotoxicity at 70.5 h was 3.46%.
For `CCOc1ccc(Cl)c(C(=O)NCc2ccc(C(=O)NC)cc2)n1`, the cytotoxicity at 70.5 h stood at 4.62%.
In the case of `CN(Cc1ccccc1)C(=O)c1nc(S(C)(=O)=O)n2ccccc12`, the cytotoxicity at 70.5 h came to 31.2%.
As to `Cc1cc(C2CCCN2CCCS(=O)(=O)c2ccccc2)no1` (stereo not given), the cytotoxicity at 70.5 h was -4.85%.
Regarding `CC(C)CN(Cc1nc2c(cnn2C)c(=O)[nH]1)C(C)C`, the cytotoxicity at 70.5 h is -2.34%.
For `CCNC(=O)N1CCN(C(=O)c2cc(Cl)cc3cccnc23)CC1`, the cytotoxicity at 70.5 h was -9.51%.
For `O=C(c1ccc(C(F)(F)F)nc1)N1CCCC(n2cncn2)C1` (stereo not given), the cytotoxicity at 70.5 h was -1.03%.
For the compound `O=C(Nc1cccc(N2CCCC2)c1)C1CCCN1c1nccs1` (stereo not given), the cytotoxicity at 70.5 h is -2.18%.
Take `CN(C)c1cc2c(nn1)CCN(C(=O)Cc1noc3ccccc13)C2`: the cytotoxicity at 70.5 h is 9.27%.
As to `Cc1nc(C)n(CC2CCCN2Cc2cn3ccsc3n2)n1` (stereo not given), the cytotoxicity at 70.5 h worked out at 3.39%.
For `O=C1C(NCc2nnc3n2CCCC3)CCCN1c1cccc(F)c1` (stereo not given), the cytotoxicity at 70.5 h is -3.38%.

The values above are taken from ChEMBL document CHEMBL3507680, “University of Dundee, Gates Library screen for HepG2 cell viability”.
